Results on one compound are retold here after article PMC12644462, “A novel radiosensitizer α-sulfoquinovosyl-acylpropanediol (SQAP) inhibits DNA repair pathways and sensitize cells to cancer chemotherapeutic agents” (Scientific Reports, 2025).

Data set [1] has as its system seven canine cancer cell lines. The settings on record: all seven cell lines. On the procedure:
Sensitivity to radiation or chemical reagents was assessed through colony formation assays. After trypsinized single cells were plated to form 20–200 colonies per dish and then treated with SQAP for 3 h in normoxia or hypoxia, the cells were irradiated. For drug sensitivity study, trypsinized cells were plated and then treated with various dosage of testing agents. After seven days of incubation, colonies were fixed, stained and scored. Regression curves were drawn from survival fraction, and D10 values (doses to achieve 10% cell survival) were calculated by Prism 8 (GraphPad software, San Diego, CA, USA) from at least three independent experiments. Oxygen enhancement ratio (OER) and sensitization enhancement ratio (SER) values were calculated from D10 values. OER values were calculated from the D10 value in hypoxia divided by the D10 value in normoxic condition. SER values were calculated from the D10 value without SQAP divided by the D10 value with SQAP.

For data set [2], the target named is T1, Topo I (Homo sapiens, UniProt P11387).
T1 sequence (P11387 1-765): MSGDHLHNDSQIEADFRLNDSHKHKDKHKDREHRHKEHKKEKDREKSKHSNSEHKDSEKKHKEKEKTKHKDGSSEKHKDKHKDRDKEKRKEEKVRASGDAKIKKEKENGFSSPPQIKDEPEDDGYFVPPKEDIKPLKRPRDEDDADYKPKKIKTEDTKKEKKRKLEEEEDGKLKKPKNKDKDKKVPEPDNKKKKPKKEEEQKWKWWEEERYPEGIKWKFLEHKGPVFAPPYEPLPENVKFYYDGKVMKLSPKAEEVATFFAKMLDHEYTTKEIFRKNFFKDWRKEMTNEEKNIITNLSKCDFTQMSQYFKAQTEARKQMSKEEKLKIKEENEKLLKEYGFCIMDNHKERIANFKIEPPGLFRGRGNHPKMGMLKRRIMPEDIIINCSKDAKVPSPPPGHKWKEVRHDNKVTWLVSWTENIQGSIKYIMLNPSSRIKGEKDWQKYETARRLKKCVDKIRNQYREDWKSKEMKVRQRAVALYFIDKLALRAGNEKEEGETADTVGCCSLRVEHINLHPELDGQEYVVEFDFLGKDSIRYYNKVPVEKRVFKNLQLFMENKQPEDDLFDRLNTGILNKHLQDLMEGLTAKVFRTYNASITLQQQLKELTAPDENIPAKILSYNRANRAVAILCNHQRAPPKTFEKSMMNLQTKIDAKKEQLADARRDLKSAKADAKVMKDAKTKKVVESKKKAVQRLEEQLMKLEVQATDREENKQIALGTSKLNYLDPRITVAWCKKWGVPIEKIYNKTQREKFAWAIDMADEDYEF
Description: Topoisomerase I assay. Particulars: supercoiled pHOT1 DNA, 37 °C, 30 min. The data set is classed as biochemical. Here is the method:
(§1) For topoisomerase (Topo) I assay, a mixture of 125 ng of supercoiled pHOT1 DNA, 1U of Topo I enzyme, and various concentrations of SQAP in 1 mM Tris-HCl (pH7.9), 0.1 mM EDTA, 0.015 M NaCl, 0.01% BSA, 0.01 mM Spermidine and 0.5% glycerol was incubated at 37 °C for 30 min. For Topo II alpha assay, a mixture of 10 µL containing of 50 ng of […] DNA in 0.05 M Tris-HCl (pH8), 1U of Topo II alpha, various concentrations of SQAP in 0.15 M NaCl, 10 mM MgCl2, 0.5mM DTT, 30 µg/mL of BSA, 2 mM ATP was incubated at 37 °C for 30 min. After the reaction was terminated, electrophoresis was conducted at 50 V for 3 h, followed by ethidium bromide staining. DNA images were obtained by a Bio-Rad imager (Bio-Rad, Hercules, CA, USA) and quantified with Image Lab software (Bio-Rad).

Data set [3] has as its system seven canine cancer cell lines (Abrams, D17, Moresco, CML-6M, Jones, CML-10C2, STSA-1). The experiment in a line: Colony formation assay, gamma-ray radiosensitization in normoxia or hypoxia. The class given is cell-based. Particulars: 30 µM SQAP. Here is the method: Irradiation was conducted by JL Shepard Mark I ^137Cs irradiator (nominal 6000 Ci) with dose rate of approximately 2.5 Gy per minute at room temperature. For hypoxia irradiation, cell cultures were placed in Aneropak Kenki system (Mitsubishi Gas Chemical, Tokyo, Japan) with oxygen meter to confirm pO2 below 0.1%. Cells were kept in hypoxia for 3 h before irradiation.

Data set [4] relates to histone deacetylase 1 (HDAC1). Also on record: method as in PMID 33577659. The settings on record: cited from earlier work.
Data set [5] has as its system HR activity in HeLa DR-GFP cells. The experiment in a line: DR-GFP DNA repair reporter assay. The data set is classed as cell-based, human. The settings on record: 30 µM SQAP, p < 0.05. On the procedure: HR and NHEJ activities were assessed using the DR-GFP reporter system[25] and the EJ5-GFP reporter system, respectively. pDRGFP and pCBASceI were gifts from Dr. Maria Jasin (Addgene plasmid #26475 and #26477). pimEJ5GFP was a gift from Dr. Jeremy Stark (Addgene plasmid # 44026). The assays were performed as previously described. Briefly, HeLa cells expressing DR-GFP, or EJ5-GFP were transfected with a plasmid encoding an I-SceI endonuclease using FuGENE HD transfection reagent (Promega, Madison, WI, USA). HR and NHEJ frequencies were analyzed by counting GFP positive cells with a FACS Lyric flow cytometer (BD Biosciences, San Jose, CA, USA) at 48 h post-transfection. Drug treatment was performed 3 h after transfection, and medium was replaced with the drug until FACS analysis. Relative HR and NHEJ efficiencies were calculated by normalizing to control cell values. A total of 50,000 cells were counted for each condition.

In data set [6] the target is Topo II alpha (Homo sapiens, UniProt P11388). Description: Topoisomerase II alpha assay. The data set is classed as biochemical. The settings on record: kinetochore DNA, 37 °C, 30 min. On the procedure: as §1
Sequence of Topo II alpha (P11388 whole entry): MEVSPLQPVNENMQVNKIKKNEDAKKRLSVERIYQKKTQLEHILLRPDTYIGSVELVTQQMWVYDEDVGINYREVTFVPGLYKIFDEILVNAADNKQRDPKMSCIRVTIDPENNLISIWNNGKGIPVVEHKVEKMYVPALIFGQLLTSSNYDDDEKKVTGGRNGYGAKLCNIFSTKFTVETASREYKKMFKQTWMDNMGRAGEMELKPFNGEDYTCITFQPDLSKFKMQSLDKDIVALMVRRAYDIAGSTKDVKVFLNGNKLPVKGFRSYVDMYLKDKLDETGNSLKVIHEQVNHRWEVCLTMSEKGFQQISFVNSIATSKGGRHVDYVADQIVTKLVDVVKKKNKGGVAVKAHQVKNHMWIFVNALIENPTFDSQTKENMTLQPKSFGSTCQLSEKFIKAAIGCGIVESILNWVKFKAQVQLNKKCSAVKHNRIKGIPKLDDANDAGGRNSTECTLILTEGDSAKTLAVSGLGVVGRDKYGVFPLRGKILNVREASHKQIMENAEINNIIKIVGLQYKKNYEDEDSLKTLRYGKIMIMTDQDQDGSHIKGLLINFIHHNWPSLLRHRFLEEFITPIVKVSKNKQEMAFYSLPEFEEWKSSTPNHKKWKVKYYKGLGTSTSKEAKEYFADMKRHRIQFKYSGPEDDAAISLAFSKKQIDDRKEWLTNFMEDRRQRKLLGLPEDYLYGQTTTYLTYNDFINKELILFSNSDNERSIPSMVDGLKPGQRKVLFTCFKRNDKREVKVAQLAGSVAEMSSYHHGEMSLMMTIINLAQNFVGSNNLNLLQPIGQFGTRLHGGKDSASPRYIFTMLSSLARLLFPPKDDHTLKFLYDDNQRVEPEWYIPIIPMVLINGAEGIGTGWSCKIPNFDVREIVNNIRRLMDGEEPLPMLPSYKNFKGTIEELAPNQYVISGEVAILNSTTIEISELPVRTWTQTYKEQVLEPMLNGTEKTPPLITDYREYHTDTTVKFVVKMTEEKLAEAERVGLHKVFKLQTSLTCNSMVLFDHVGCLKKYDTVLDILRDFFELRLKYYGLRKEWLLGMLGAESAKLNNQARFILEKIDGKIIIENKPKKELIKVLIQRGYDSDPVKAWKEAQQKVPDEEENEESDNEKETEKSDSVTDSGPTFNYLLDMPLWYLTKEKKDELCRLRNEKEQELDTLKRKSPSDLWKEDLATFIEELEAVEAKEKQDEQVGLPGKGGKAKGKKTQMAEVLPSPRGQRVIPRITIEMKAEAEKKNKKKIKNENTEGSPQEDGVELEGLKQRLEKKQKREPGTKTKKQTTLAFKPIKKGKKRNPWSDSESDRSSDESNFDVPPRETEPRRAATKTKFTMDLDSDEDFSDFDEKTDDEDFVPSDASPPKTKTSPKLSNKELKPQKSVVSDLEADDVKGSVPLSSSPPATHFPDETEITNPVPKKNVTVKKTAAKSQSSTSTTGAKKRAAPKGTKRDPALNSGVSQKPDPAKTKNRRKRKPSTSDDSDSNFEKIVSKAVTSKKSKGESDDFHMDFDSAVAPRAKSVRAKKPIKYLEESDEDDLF

Read-outs that look alike come from different tables or passages of the source.

As to `CCCCCCCCCCCCCCCCCC(=O)OCCCO[C@H]1O[C@H](CS(=O)(=O)O)[C@@H](O)[C@H](O)[C@H]1O` [SQAP, Alpha-sulfoquinovosylacyl-1,3-propanediol], the “cytotoxicity of continuous exposure of SQAP (clonogenic survival)” value in data set [1] (30 µM SQAP) is listed as “tolerance”; in data set [1] (60 µM SQAP), “minimal cell viability”. Moreover, the figures for the IC50 in data set [2] and in data set [6] were 25 µM and 9 µM, respectively. In addition, in data set [3], the “changes in OER values with and without SQAP treatment” value was “not observed”. In addition, in data set [3] (both normoxic and hypoxia conditions), the “radiosensitization to gamma-ray exposure” value was “induced radiosensitization”. The HDAC1 enzymatic inhibition entry in data set [4] is on record as “does not inhibit”. In addition, the HR activity result in data set [5] is given as “significantly reduced”.
